This assay can be described thus: Inhibition of Wnt signal activity by luciferase superTOP-Flash gene assay.

Activity calls are given as the source filed them. No cut-off for these calls is given here.

Take `COC(=O)C[C@H](O)[C@H](Cc1ccc(O)cc1)NC(=O)CNC(=O)[C@H](NC(=O)c1ccc(OC)cc1)[C@@H](C)O`: the result was Active. As for `COC(=O)C[C@H](O)[C@H](Cc1ccc(O)cc1)NC(=O)CNC(=O)[C@@H](NC(=O)c1ccc(OC)cc1)[C@@H](C)O`, the outcome was inactive.

These data come from ChEMBL document CHEMBL1140790, “Determination of absolute stereochemistry, total synthesis, and evaluation of peptides from the myxomycete Physarum melleum” (Bioorg Med Chem Lett, 2008).
